Calls of active or inactive are those of the source. No rule for the calls is given here.
Test system: MRP1 cells, doxorubicin viability shift, 10 uM compound
Assay: viability protection against doxorubicin, MRP-1 line – cell-based, doxorubicin EC50 shift, dose response (AID 844)
Conditions: for EC50: measured here: doxorubicin EC50 with compound

SMILES | fold increase in Dox EC50 | EC50
COc1ccc(OC)c(NC(=O)CSc2nnc(CNC(=O)COc3ccc(Cl)cc3)o2)c1 | 1.11 (inactive) | 5.98 µM
COC(=O)CCc1c(C)[nH]c(C(=O)OCc2ccccc2)c1C | 0.85 (inactive) | 4.57 µM
Cc1ccc(NC(=O)CSc2nnc(C)n2-c2ccccc2)cc1 | 1.61 | 8.71 µM
Cc1ccc(-c2cc(-c3ccccc3)no2)c(O)c1 | 0.59 (inactive) | 3.2 µM
N#CCCNC(=O)Cn1c(COc2ccc(Cl)cc2)nc2ccccc21 | 0.85 (inactive) | 4.57 µM
O=C1OC(Nc2ccccn2)c2ccccc21 (configuration not stated) | 0.81 (inactive) | 4.35 µM
COc1cc(S(=O)(=O)Nc2cccc(C)c2)ccc1NC(=O)c1ccncc1 | 0.6 (inactive) | 3.26 µM
Cc1ccc(S(=O)(=O)Nc2ccc3ncccc3c2)cc1 | 1.36 (inactive) | 7.32 µM
C/C(=N\NC(=O)CCc1c[nH]c2ccccc12)c1cccc([N+](=O)[O-])c1 | 0.8 (inactive) | 4.33 µM
O=C(COc1ccc(Cl)cc1)N1CCN(S(=O)(=O)c2ccccc2)CC1 | 0.68 (inactive) | 3.68 µM
CCOC(=O)c1ccccc1NC(=O)C1COc2ccccc2O1 (configuration not stated) | 0.42 (inactive) | 2.28 µM
Cc1nnc(NC(=O)c2c(F)cccc2F)s1 | 1.23 (inactive) | 6.63 µM
Nc1nc2n(n1)C(c1cccs1)CC(c1ccc(Br)cc1)N2 (configuration not stated) | 0.91 (inactive) | 4.93 µM
Fc1ccc(-n2nnnc2-c2cnc(-c3cccs3)nc2C(F)(F)F)cc1 | 0.6 (inactive) | 3.24 µM
Cc1nc(NC(=S)NC(=O)c2ccccc2)sc1C(=O)N(C)C | 1.24 (inactive) | 6.71 µM
C/C(=N/NC(=S)Nc1ccccc1)c1ccc2c(c1)OCO2 | 1.01 (inactive) | 5.46 µM
N#Cc1nc(COc2ccc(Br)cc2)oc1NCCN1CCOCC1 | 0.83 (inactive) | 4.5 µM
Cc1ccc(Cl)cc1N1CCN(C(=O)c2cc3c(=O)n(C)c4ccccc4c3n2C)CC1 | 0.19 (inactive) | 1 µM
C/C(=N\NC(=O)c1ccc(Cn2cc([N+](=O)[O-])cn2)o1)c1cccc(NC(=O)c2cccnc2)c1 | 0.73 (inactive) | 3.94 µM
COc1ccc(NC2=Nc3ccccc3N3C2=Nc2c(c(C)nn2-c2ccc(C)cc2)C3c2cccnc2)cc1 (configuration not stated) | 0.6 (inactive) | 3.24 µM
N#Cc1ccc(N2C(=O)[C@@H]3C(C(=O)c4ccc5ccccc5n4)=NN[C@@H]3C2=O)cc1 | 1.3 (inactive) | 7 µM
O=C(NCCc1ccc(Cl)cc1)c1cnc2n(c1=O)CCS2 | 0.66 (inactive) | 3.55 µM
CC(=O)Nc1ccc2[nH]c(C)c(CC=C(Cl)Cl)c(=O)c2c1 | 0.72 (inactive) | 3.87 µM
O=C1N=C(c2ccccc2)S/C1=C\c1cccs1 | 1.2 (inactive) | 6.5 µM
Cc1c(N2C(=O)/C(=C/c3ccccc3)SC2=S)c(=O)n(-c2ccccc2)n1C | 0.58 (inactive) | 3.15 µM
CCC1(C)Cc2c(sc3nnn(Cc4ccccc4Cl)c(=O)c23)CO1 (configuration not stated) | 0.81 (inactive) | 4.35 µM

SMILES | fold increase in Dox EC50 | EC50
COC(=O)c1ccc(COc2cc(O)c3c(c2)OC(C)(C)CC3=O)cc1 | 1.03 (inactive) | 5.56 µM
Cc1cccc(-n2c(N)cc(=O)nc2SCC(=O)Nc2nnc(C)s2)c1 | 1.54 | 8.29 µM
Cc1ccc(/C=C2\SC(=S)N(CCC(=O)NNC(=O)c3cccnc3)C2=O)cc1 | 0.91 (inactive) | 4.9 µM
C=CCNC(=O)c1ccccc1NC(=O)c1ccc(Cl)c(S(=O)(=O)Nc2cccc(C)c2C)c1 | 0.36 (inactive) | 1.96 µM
COc1ccc(-n2ncc3c(N4CCCc5ccccc54)ncnc32)cc1 | 0.67 (inactive) | 3.62 µM
CCCNC(=O)c1oc2ccc3c(c2c1C)C(=O)CC(C)(C)O3 | 0.84 (inactive) | 4.55 µM
CCNc1oc(-c2cccc3ccccc23)nc1C#N | 0.68 (inactive) | 3.68 µM
O=C(N/N=C/c1ccccn1)c1cc(-c2ccc3ccccc3c2)n[nH]1 | 0.75 (inactive) | 4.04 µM
CCOC(=O)C1=C(C)Nc2sc(C(=O)c3ccc(OC)cc3)c(N)c2C1c1ccc(C(=O)OC)cc1 (configuration not stated) | 0.2 (inactive) | 1.09 µM
O=C(CC(c1ccccc1)c1ccccc1)Nc1ncn[nH]1 | 0.75 (inactive) | 4.03 µM
Cc1cc(/C=C2\SC(=S)NC2=O)c(C)n1C | 1.44 (inactive) | 7.78 µM
COc1cc(C(c2sc3ncnn3c2O)N2CCN(c3ccccc3F)CC2)cc(OC)c1OC (configuration not stated) | 0.81 (inactive) | 4.37 µM
Cc1ccc(C(C)C)c(OCc2nc(-c3nonc3N)no2)c1 | 1.51 | 8.18 µM
CC1=C(C(=O)OC(C)C)C(c2cccc(F)c2)N2C(=O)C(C)SC2=N1 (configuration not stated) | 1.21 (inactive) | 6.53 µM
CCOC(=S)NC(=O)c1sc2ccccc2c1Cl | 1.32 (inactive) | 7.13 µM
NNC(=O)CNC(c1ccccc1)c1cc(Br)ccc1NC(=O)c1cccc(Cl)c1 (configuration not stated) | 1.21 (inactive) | 6.53 µM
Cc1nc2cc(-c3ccsc3-n3c(C)ccc3C)[nH]n2c(=O)c1Cl | 0.74 (inactive) | 4 µM
COc1ccc(OC)c(-c2csc(NC(=O)C3c4ccccc4Oc4ccccc43)n2)c1 | 0.96 (inactive) | 5.16 µM
COc1ccc(/C=N/Nc2cc(C)nc(-n3nc(C)cc3C)n2)cc1 | 0.12 (inactive) | 0.656 µM
O=C(c1ccc(COc2ccc(Br)cc2)o1)N1N=C(C(F)F)CC1(O)C(F)F (configuration not stated) | 1.06 (inactive) | 5.71 µM
COc1ccc(/C=C/C(=O)NCc2cnn(C)c2C)cc1COc1ccc(Br)cc1 | 0.68 (inactive) | 3.7 µM
CCOc1ccc(C2CC(c3ccc(F)cc3)Nc3nc(N)nn32)cc1 (configuration not stated) | 0.55 (inactive) | 2.95 µM
COc1ccccc1N1CCN(C(=O)COc2ccc(Cl)cc2)CC1 | 0.8 (inactive) | 4.32 µM
CC(=O)N1CCN=C1SCc1ccc(C)cc1 | 0.87 (inactive) | 4.67 µM
Cc1ccc(N/N=C(\C#N)C(=N)N2CCOCC2)cc1 | 0.92 (inactive) | 4.95 µM
Cn1nccc1CNC(=O)c1ccnn1C | 0.66 (inactive) | 3.56 µM

SMILES | fold increase in Dox EC50 | EC50
COc1ccc(/C=C/C(=O)Nc2c(C)nn(C)c2C)cc1COc1ccc(Br)cc1 | 0.84 (inactive) | 4.51 µM
Cc1cc(C)cc(-c2nc(-c3ccncc3)no2)c1 | 0.77 (inactive) | 4.13 µM
O=C1CSC(=NC(=O)c2ccccc2)N1 | 0.7 (inactive) | 3.79 µM
CCSC(C)CC1C/C(=N/O)c2c(CC)noc2C1 (configuration not stated) | 1.27 (inactive) | 6.85 µM
COc1ccc(C(=O)NCc2ccc3c(c2)OCO3)cc1S(=O)(=O)N(C)Cc1ccccc1 | 0.75 (inactive) | 4.08 µM
Cc1ccc(Nc2nc(CSc3nnnn3C)cs2)cc1 | 1.18 (inactive) | 6.36 µM
COc1ccc(S(=O)(=O)N(CC(=O)N2CCN(c3ccccc3OC)CC2)c2ccccc2)cc1 | 0.46 (inactive) | 2.49 µM
Cc1ccc(N/N=C(\C#N)C(N)=S)c(C)c1 | 0.6 (inactive) | 3.25 µM
CCOC(=O)c1cnn(-c2ccccn2)c1N | 0.92 (inactive) | 4.94 µM
Cn1c(C(=O)NCc2ccccc2)cc2oc3ccccc3c21 | 1.46 (inactive) | 7.9 µM
CCNc1sc(C(=O)c2cccs2)c(N)c1-c1nc2ccccc2s1 | 0.59 (inactive) | 3.17 µM
c1ccc(C(c2ccccc2)N2CCN(c3nc4ccccc4n4cnnc34)CC2)cc1 | 0.81 (inactive) | 4.39 µM
Cc1cc(C)n2nc(C(=O)Nc3nnc(C4CC4)s3)nc2n1 | 0.87 (inactive) | 4.7 µM
FC(F)(F)c1cccc(CNc2ncccc2-c2nc3cc(Cl)ccc3o2)c1 | 0.93 (inactive) | 5.03 µM
Cc1cccc(Cc2cnc(NC(=O)CN3C(=O)/C(=C/c4ccccc4)SC3=S)s2)c1 | 1.53 | 8.25 µM
O=C(O)CSC1c2ccccc2C(=O)N1Cc1ccccc1 (configuration not stated) | 0.82 (inactive) | 4.42 µM
Cc1nc(/N=C(\N)NC(=O)N2c3ccccc3Sc3ccccc32)nc2ccccc12 | 0.95 (inactive) | 5.12 µM
O=C1NC(=Nc2ccc(Cl)cc2)SC1Cc1cc(Cl)ccc1Cl (configuration not stated) | 1.09 (inactive) | 5.86 µM
Cc1nnc(NC(=O)c2ccco2)s1 | 1.16 (inactive) | 6.28 µM
COc1cccc(Nc2nc3ccccc3nc2-n2nc(C)cc2C)c1 | 0.35 (inactive) | 1.89 µM
Cc1ccc(Nc2nnc(-c3ccc(N4CCOCC4)c([N+](=O)[O-])c3)c3ccccc23)cc1 | 0.61 (inactive) | 3.28 µM
Cc1ccc(CN2C(=O)NC(=O)C3(Cc4c(nc5ccccn5c4=O)N4CCCCCC43)C2=O)cc1 (configuration not stated) | 1.02 (inactive) | 5.51 µM
CCOC(=O)CCCCC(=O)c1[nH]c(=O)[nH]c1CSc1nc(-c2ccccc2)c(C#N)c(=O)[nH]1 | 1.22 (inactive) | 6.57 µM
Cc1ccnc(NC(=O)COc2ccc3oc4c(c3c2)CCCC4)c1 | 0.78 (inactive) | 4.21 µM

Reference: PubChem BioAssay AID844 (SRMLSC, 2007)
